These results are taken from patent publication US20110224231A1, “Novel Lactams as Beta Secretase Inhibitors” (Pfizer Inc., priority 2008, published 2011).

This experiment addresses T1, soluble human BACE (Homo sapiens, UniProt P56817).
T1 construct: cells secreting human recombinant soluble BACE; made in house; conditioned medium
Briefly: BACE activity Cell Free Assay (ELISA of cleaved synthetic APP substrate). It counts as biochemical. As to the method:
A synthetic APP substrate that can be cleaved by beta˜secretase and having N-terminal biotin is used to assay beta-secretase activity in the presence or absence of the inhibitory compounds. […] The substrate and test compounds are added to 384 well polypropylene plates. The reaction is initiated by the addition of soluble BACE enzyme to a final volume of 12.5 μL per well. The final assay conditions are: 0.001˜300 μM compound inhibitor, 0.05M sodium acetate (pH 4.5), 3 μM substrate, soluble human BACE, and 2% DMSO. Concentrated conditioned media from cells secreting human recombinant soluble BACE was titrated to provide a source of BACE enzyme. The cell media can be used as either a crude BACE prep or BACE can be purified using any number of techniques, including immobilized BACE inhibitor purification columns. The assay mixture is incubated for 1 hour at 37° C., and the reaction is quenched by the addition of an equal volume of 0.1M Tris, pH 8. Half of the quenched mix is incubated on clear streptavidin coated 384 well polystyrene plates for 1 hour. An ELISA is then performed using an in˜house antibody that specifically recognizes the new C˜terminus created after cleavage by BACE. […] (These polyclonal antibodies were raised in rabbits by immunizing with antigen comprised of six amino acid residues present at the carboxy terminus of the wild-type soluble APPbeta sequence (NH2-ISEVKM-COOH) or seven amino acid residues present at the carboxy terminus of the Swedish mutation at the beta cleavage site (NH2-EISEVNL˜COOH) conjugated to keyhole limpet hemacyanin by methods known to those skilled in the art.) A secondary anti˜species Horseradish Peroxidase (HRP) conjugated antibody is then utilized. The readout, following assay development with TMB substrate and quenching with 0.09M sulfuric acid, is absorbance at 450 nm.
On the technique in general: An ELISA detects its analyte on a solid surface through an enzyme-linked reagent.

Counter-ions that a name gives are not always drawn. Like-named read-outs stand apart in the source and are kept apart here.

T1 sequence (P56817 46-457 limits assumed): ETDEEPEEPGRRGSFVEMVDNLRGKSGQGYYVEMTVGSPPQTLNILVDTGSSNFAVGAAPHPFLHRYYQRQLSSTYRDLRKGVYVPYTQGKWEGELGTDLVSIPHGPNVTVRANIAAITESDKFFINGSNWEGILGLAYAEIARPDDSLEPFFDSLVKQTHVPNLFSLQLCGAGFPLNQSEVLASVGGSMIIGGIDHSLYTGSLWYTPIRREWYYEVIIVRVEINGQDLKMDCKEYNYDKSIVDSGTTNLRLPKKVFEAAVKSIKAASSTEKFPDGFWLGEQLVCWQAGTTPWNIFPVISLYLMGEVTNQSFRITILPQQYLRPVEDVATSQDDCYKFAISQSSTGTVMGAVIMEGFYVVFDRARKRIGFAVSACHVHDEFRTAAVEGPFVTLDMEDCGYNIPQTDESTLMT

In the case of `CC1CC2(C=CC(=O)N2c2cccc(F)c2)CCN1Cc1c[nH]c2ccc(C#N)cc12` (racemic) [Example 61, Racemic 3-{[(5R,7S),(5S,7R)-1-(3-fluorophenyl)-7-methyl-2-oxo-1,8-diazaspiro[4.5]dec-3-en-8-yl]methyl}-1H-indole-5-carbonitrile], the IC50 – broadly, the concentration at which inhibition is half-maximal – fell in the range of 10 to 100 µM.

`CC1CC2(C=CC(=O)N2c2cccc(F)c2)CCN1Cc1cccc(-c2cncc(C#N)c2)c1` (racemic) [Example 25, Racemic 5-(3-{[(5R,7S),(5S,7R)-1-(3-fluorophenyl)-7-methyl-2-oxo-1,8-diazaspiro[4.5]dec-3-en-8-yl]methyl}phenyl)nicotinonitrile] had an IC50 of 10 to 100 µM.

`CC1CC2(C=CC(=O)N2c2cccc(F)c2)CCN1Cc1cccc(-c2ccc(C(F)(F)F)cn2)c1` (racemic) [Example 30, Racemic (5R,7S),(5S,7R)-1-(3-fluorophenyl)-7-methyl-8-{3-[5-(trifluoromethyl)pyridin-2-yl]benzyl}-1,8-diazaspiro[4.5]dec-3-en-2-one] yielded an IC50 of 100 to 300 µM.

With `CC(C)n1ncc2ccc(CN3CC[C@]4(C=CC(=O)N4c4cnccn4)C[C@@H]3C)cc21` [#130, (5R,7S)-8-[(1-isopropyl-1H-indazol-6-yl)methyl]-7-methyl-1-pyrazin-2-yl-1,8-diazaspiro[4.5]dec-3-en-2-one], the IC50 was 10 to 100 µM.

For the compound `CC(C)Oc1cccc(CN2CC[C@]3(C=CC(=O)N3c3cnn(C)c3)C[C@@H]2C)c1` [#113], the IC50 fell in the range of 10 to 100 µM.

As for `CC(C)C(O)c1cc(CN2CCC3(C=CC(=O)N3c3cccc(F)c3)CC2C)ccc1O` (stereo not drawn) [#205], the IC50 fell in the range of 0.001 to 1 µM.

Compound `CC(C)Oc1cccc(CN2CC[C@]3(C=CC(=O)N3c3cncc(F)c3)C[C@@H]2C)c1` [#116] registered an IC50 of 1 to 10 µM.

`CC1CC2(CCC(=O)N2c2cccc(F)c2)CCN1Cc1nc(-c2cccc(Cl)c2)cs1` (racemic) [Example 81, Racemic (5R,7S),(5S,7R)-8-{[4-(3-chlorophenyl)-1,3-thiazol-2-yl]methyl}-1-(3-fluorophenyl)-7-methyl-1,8-diazaspiro[4.5]decan-2-one]: the IC50 was in the range of 100 to 300 µM.

Compound `CC(C)Oc1cc(CN2CC[C@]3(CCC(=O)N3c3cccc(F)c3)C[C@@H]2C)ccc1O` [Example 89, (5R,7S)˜1˜(3˜fluorophenyl)˜8˜(4˜hydroxy˜3˜isopropoxybenzyl)˜7˜methyl˜1,8˜diazaspiro[4.5]decan˜2˜one hydrochloride] yielded an IC50 of 0.001 to 1 µM.

Take `CC1CC2(C=CC(=O)N2c2cccc(F)c2)CCN1Cc1ccc(F)c(Br)c1` (racemic) [Example 24, Racemic (5R,7S),(5S,7R)-8-(3-bromo-4-fluorobenzyl)-1-(3-fluorophenyl)-7-methyl-1,8-diazaspiro[4.5]dec-3-en-2-one]: the IC50 is 100 to 300 µM.

Consider `C[C@H]1C[C@@]2(C=CC(=O)N2c2cccc(F)c2)CCN1Cc1ccc(O)c(-c2ccccc2F)c1` [#208], for which the IC50 fell in the range of 0.001 to 1 µM.

On to `CC(C)Cc1ocnc1CN1CC[C@]2(C=CC(=O)N2c2cccc(F)c2)C[C@@H]1C` [#200], for which the IC50 was in the range of 1 to 10 µM.

The compound `Cc1cccc(N2C(=O)C=C[C@]23CCN(Cc2ccc(O)c(OC(C)C)c2)[C@@H](C)C3)n1` [#135, (5R,7S)-8-(4-hydroxy-3-isopropoxybenzyl)-7-methyl-1-(6-methylpyridin-2-yl)-1,8-diazaspiro[4.5]dec-3-en-2-one] gave an IC50 of 0.001 to 1 µM.

The compound `CC(C)Oc1cccc(CN2CC[C@]3(C=CC(=O)N3c3cc(C(F)(F)F)ccn3)C[C@@H]2C)c1` [#119] came in with an IC50 of 100 to 300 µM.

`CC1CC2(CCC(=O)N2c2cccc(F)c2)CCN1Cc1nc(-c2ccc(C#N)cc2)cs1` (racemic) [Example 54, Racemic 4-(2-{[(5R,7S),(5S,7R)-1-(3-fluorophenyl)-7-methyl-2-oxo-1,8-diazaspiro[4.5]dec-8-yl]methyl}-1,3-thiazol-4-yl)benzonitrile] displayed an IC50 of 100 to 300 µM.

As for `Cc1cc(CN2CCC3(CCC(=O)N3c3cccc(F)c3)CC2C)ccc1O` (racemic) [Example 38, Racemic (5R,7S),(5S,7R)-1-(3-fluorophenyl)-8-(4-hydroxy-3-methylbenzyl)-7-methyl-1,8-diazaspiro[4.5]decan-2-one], the IC50 was in the range of 10 to 100 µM.

As to `CC1CC2(C=CC(=O)N2c2cccc(F)c2)CCN1Cc1nc(-c2ccccc2Cl)cs1` (racemic) [Example 85, Racemic (5R,7S),(5S,7R)-8-{[4-(2-chlorophenyl)-1,3-thiazol-2-yl]methyl}-1-(3-fluorophenyl)-7-methyl-1,8-diazaspiro[4.5]dec-3-en-2-one], the IC50 lay in the range of 100 to 300 µM.

`Cc1cccc(N2C(=O)C=C[C@]23CCN(Cc2ccc4cnn(C(C)C)c4c2)[C@@H](C)C3)n1` [#139, (5R,7S)-8-[(1-isopropyl-1H-indazol-6-yl)methyl]-7-methyl-1-(6-methylpyridin-2-yl)-1,8-diazaspiro[4.5]dec-3-en-2-one] returned an IC50 of 100 to 300 µM.

In turn, `CC(C)Oc1cccc(CN2CC[C@]3(C=CC(=O)N3c3cncc(C(F)(F)F)c3)C[C@@H]2C)c1` [#118] gave an IC50 of 10 to 100 µM.

`CC1CC2(CCC(=O)N2c2cccc(F)c2)CCN1Cc1n[nH]c2ccc(Cl)cc12` (racemic) [Example 78, Racemic (5R,7S),(5S,7R)-8-[(5-chloro-1H-indazol-3-yl)methyl]-1-(3-fluorophenyl)-7-methyl-1,8-diazaspiro[4.5]decan-2-one]: the IC50 is 100 to 300 µM.

With `CC(C)NS(=O)(=O)c1cccc(CN2CCC3(C=CC(=O)N3c3cccc(F)c3)CC2C)c1` (racemic) [Example 28, Racemic 3-{[(5R,7S),(5S,7R)-1-(3-fluorophenyl)-7-methyl-2-oxo-1,8-diazaspiro[4.5]dec-3-en-8-yl]methyl}-N-isopropylbenzenesulfonamide], the IC50 lay in the range of 10 to 100 µM.

The compound `CC(C)Oc1cc(CN2CC[C@]3(C=C(c4ccccc4)C(=O)N3c3cccc(F)c3)C[C@@H]2C)ccc1O` [Example @97, (5R,7S)-1-(3-Fluorophenyl)-8-(4-hydroxy-3-isopropoxybenzyl)-7-methyl-3-phenyl-1,8-diazaspiro[4.5]dec-3-en-2-one, hydrochloride salt] gave an IC50 of 1 to 10 µM.

The compound `Cc1cccc(N2C(=O)C=C[C@]23CCN(Cc2ccc(O)c(Cl)c2)[C@@H](C)C3)n1` [#141, (5R,7S)-8-(3-chloro-4-hydroxybenzyl)-7-methyl-1-(6-methylpyridin-2-yl)-1,8-diazaspiro[4.5]dec-3-en-2-one, ammonium salt] showed a half-maximal inhibitory concentration (IC50) of 1 to 10 µM.

The compound `CC(C)Oc1cccc(CN2CC[C@]3(C=CC(=O)N3c3ccccn3)C[C@@H]2C)c1` [#101] registered an IC50 of 10 to 100 µM.

`CC(C)Oc1cccc(CN2CC[C@]3(C=CC(=O)N3CC3CC3)C[C@@H]2C)c1` [Example @93, (5R,7S)-1-(cyclopropylmethyl)-8-(3-isopropoxybenzyl)-7-methyl-1,8-diazaspiro[4.5]dec-3-en-2-one]: the IC50 (Table 6, cell free, soluble human BACE, pH 4.5, 3 μM substrate, read-out: BACE Activity (Cell Free Assay IC50)) fell in the range of 100 to 300 µM.

`CC(=O)Nc1ccc(CN2CCC3(CCC(=O)N3c3cccc(F)c3)CC2C)cc1` (racemic) [Example 69, Racemic N-(4-{[(5R,7S),(5S,7R)-1-(3-fluorophenyl)-7-methyl-2-oxo-1,8-diazaspiro[4.5]dec-8-yl]methyl}phenyl)acetamide] had an IC50 of 10 to 100 µM.

Compound `CC(C)Oc1cc(CN2CC[C@]3(C=CC(=O)N3c3cnccn3)C[C@@H]2C)ccc1O` [#132, (5R,7S)-8-(4-hydroxy-3-isopropoxybenzyl)-7-methyl-1-pyrazin-2-yl-1,8-diazaspiro[4.5]dec-3-en-2-one] displayed an IC50 of 0.001 to 1 µM.
